The text below walks through data of US10202339B2, “Therapeutic compounds and compositions” (AGIOS PHARMACEUTICALS, INC., priority 2012, dated 2019).

In this assay the target is IDH1 R132H (Homo sapiens (Human), UniProt O75874, R132H). The assay can be described thus: In vitro assay for IDH1m (R132H) inhibitors, NADPH depletion with resazurin/resorufin detection. The assay is classed as biochemical. The settings on record: IDH1 R132H enzyme, 50 minutes at room temperature; read-out: IDH R132H IC50. Here is the method: Assays were conducted in a volume of 76 μl assay buffer (150 mM NaCl, 10 mM MgCl2, 20 mM Tris pH 7.5, 0.03% bovine serum albumin) as follows in a standard 384-well plate: To 25 ul of substrate mix (8 uM NADPH, 2 mM aKG), 1 μl of test compound was added in DMSO. The plate was centrifuged briefly, and then 25 μl of enzyme mix was added (0.2 μg/ml IDH1 R132H) followed by a brief centrifugation and shake at 100 RPM. The reaction was incubated for 50 minutes at room temperature, then 25 μl of detection mix (30 μM resazurin, […]) was added and the mixture further incubated for 5 minutes at room temperature. The conversion of resazurin to resorufin was detected by fluorescent spectroscopy at Ex544 Em590 c/o 590.
IDH1 R132H, sequence (O75874 whole entry R132H): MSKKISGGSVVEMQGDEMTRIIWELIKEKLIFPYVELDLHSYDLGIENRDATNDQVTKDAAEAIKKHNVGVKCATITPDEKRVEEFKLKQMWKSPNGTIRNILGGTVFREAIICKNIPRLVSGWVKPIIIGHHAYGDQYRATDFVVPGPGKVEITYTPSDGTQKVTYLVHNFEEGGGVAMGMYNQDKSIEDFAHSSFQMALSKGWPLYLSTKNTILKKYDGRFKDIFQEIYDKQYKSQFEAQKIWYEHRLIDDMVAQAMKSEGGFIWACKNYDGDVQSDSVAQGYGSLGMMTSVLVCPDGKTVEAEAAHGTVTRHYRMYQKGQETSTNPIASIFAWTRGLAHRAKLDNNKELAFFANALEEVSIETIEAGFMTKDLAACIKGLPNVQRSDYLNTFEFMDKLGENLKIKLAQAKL
Representative compounds of formula (I) set forth in Tables 1 and 2 were tested in this assay and the results are set forth below in Table 4.
A general note: Alamar Blue is a resazurin reagent that responds to reducing activity.

Bounds are passed on as bounds.

On to `COc1cc(NC(=O)Nc2ccc(C)c(S(=O)(=O)Nc3ccc(Cl)cc3)c2)cc(OC)c1` [Compound 269], for which the IC50 (usually the midpoint of a concentration-inhibition curve) fell in the range of 1000 to 10000 nM.

As for `COc1ccc(Cl)cc1NC(=O)Nc1ccc(C)c(S(=O)(=O)Nc2ccc(Cl)cc2)c1` [Compound 270], the IC50 fell in the range of 1000 to 10000 nM.

For the molecule `COc1cc(OC)c(NC(=O)Nc2ccc(C)c(S(=O)(=O)Nc3ccc(Cl)cc3)c2)cc1Cl` [Compound 271], the IC50 lay within 1000 to 10000 nM. As for `COc1cc([N+](=O)[O-])ccc1NC(=O)Nc1ccc(C)c(S(=O)(=O)Nc2ccc(Cl)cc2)c1` [Compound 272], the figure is 1000 to 10000 nM.

On to `CSc1cccc(NC(=O)Nc2ccc(C)c(S(=O)(=O)Nc3ccc(Cl)cc3)c2)c1` [Compound 273], for which the IC50 was 1000 to 10000 nM. The result for `CSc1ccc(NC(=O)Nc2ccc(C)c(S(=O)(=O)Nc3ccc(Cl)cc3)c2)cc1` [Compound 274] reads 1000 to 10000 nM. Consider `Cc1ccc(NC(=O)Nc2cccc([N+](=O)[O-])c2)cc1S(=O)(=O)Nc1ccc(Cl)cc1` [Compound 275], for which the IC50 is 1000 to 10000 nM. The result for `COC(=O)c1cccc(NC(=O)Nc2ccc(C)c(S(=O)(=O)Nc3ccc(Cl)cc3)c2)c1` [Compound 276] reads 1000 to 10000 nM; that for `Cc1ccc(NC(=O)NCc2ccc(Br)cc2)cc1S(=O)(=O)Nc1ccc(Cl)cc1` [Compound 277], 1000 to 10000 nM. As for `Cc1ccc(NC(=O)NCc2ccccc2F)cc1S(=O)(=O)Nc1ccc(Cl)cc1` [Compound 278], the figure is 1000 to 10000 nM; as for `Cc1ccc(NC(=O)NCc2cccc(F)c2)cc1S(=O)(=O)Nc1ccc(Cl)cc1` [Compound 279], 1000 to 10000 nM; as for `Cc1ccc(NC(=O)NCc2ccc(Cl)cc2Cl)cc1S(=O)(=O)Nc1ccc(Cl)cc1` [Compound 280], 1000 to 10000 nM. For the molecule `Cc1cccc(CNC(=O)Nc2ccc(C)c(S(=O)(=O)Nc3ccc(Cl)cc3)c2)c1` [Compound 282], the IC50 lay within 1000 to 10000 nM.

As for `Cc1ccc(CNC(=O)Nc2ccc(C)c(S(=O)(=O)Nc3ccc(Cl)cc3)c2)cc1` [Compound 283], the IC50 was 1000 to 10000 nM. The result for `Cc1ccc(NC(=O)N[C@H](C)c2ccccc2)cc1S(=O)(=O)Nc1ccc(Cl)cc1` [Compound 284] reads 1000 to 10000 nM; that for `Cc1ccc(NC(=O)Nc2ccccc2Cc2ccccc2)cc1S(=O)(=O)Nc1ccc(Cl)cc1` [Compound 285], 1000 to 10000 nM. As for `Cc1ccc(NC(=O)NC2C[C@H]2c2ccccc2)cc1S(=O)(=O)Nc1ccc(Cl)cc1` (some centres unmarked) [Compound 286], the figure is 1000 to 10000 nM; as for `Cc1ccc(NC(=O)Nc2ccc3ccccc3c2)cc1S(=O)(=O)Nc1ccc(Cl)cc1` [Compound 287], 1000 to 10000 nM. In the case of `Cc1ccc(NC(=O)N[C@@H](C)c2cccc3ccccc23)cc1S(=O)(=O)Nc1ccc(Cl)cc1` [Compound 288], the IC50 is 1000 to 10000 nM.

For `Cc1ccc(NC(=O)Nc2ccsc2)cc1S(=O)(=O)Nc1ccc(Cl)cc1` [Compound 289], the IC50 lay within 1000 to 10000 nM. The result for `Cc1ccc(NC(=O)Nc2c(-c3ccccc3)noc2C)cc1S(=O)(=O)Nc1ccc(Cl)cc1` [Compound 290] reads 1000 to 10000 nM.

Take `Cc1ccc(NC(=O)Nc2ccc3c(c2)CCO3)cc1S(=O)(=O)Nc1ccc(Cl)cc1` [Compound 291]: the IC50 is 1000 to 10000 nM.

Take `Cc1ccc(NC(=O)Nc2ccc3c(c2)OCO3)cc1S(=O)(=O)Nc1ccc(Cl)cc1` [Compound 292]: the IC50 lay within 1000 to 10000 nM. As for `Cc1ccc(NC(=O)Nc2cccc(C(F)(F)F)c2)cc1S(=O)(=O)Nc1ccccc1Cl` [Compound 293], the figure is 1000 to 10000 nM; as for `Cc1ccc(NC(=O)Nc2cccc(C(F)(F)F)c2)cc1S(=O)(=O)Nc1cccc(Cl)c1` [Compound 294], 1000 to 10000 nM; as for `Cc1ccc(NC(=O)Nc2cccc(C(F)(F)F)c2)cc1S(=O)(=O)Nc1ccccc1F` [Compound 295], 1000 to 10000 nM. As for `Cc1ccc(NC(=O)Nc2cccc(C(F)(F)F)c2)cc1S(=O)(=O)Nc1cccc(F)c1` [Compound 296], the figure is 1000 to 10000 nM; as for `Cc1ccc(NC(=O)Nc2cccc(C(F)(F)F)c2)cc1S(=O)(=O)Nc1ccc(F)cc1` [Compound 297], 1000 to 10000 nM; as for `Cc1cc(F)ccc1NS(=O)(=O)c1cc(NC(=O)Nc2cccc(C(F)(F)F)c2)ccc1C` [Compound 298], 1000 to 10000 nM. The result for `Cc1ccc(NC(=O)Nc2cccc(C(F)(F)F)c2)cc1S(=O)(=O)Nc1ccc(F)c(Cl)c1` [Compound 299] reads 1000 to 10000 nM; that for `Cc1ccc(NC(=O)Nc2cccc(C(F)(F)F)c2)cc1S(=O)(=O)Nc1cc(F)c(F)cc1F` [Compound 301], 1000 to 10000 nM. With `Cc1cccc(NS(=O)(=O)c2cc(NC(=O)Nc3cccc(C(F)(F)F)c3)ccc2C)c1` [Compound 302], the 50% inhibitory concentration (IC50) was in the range of 1000 to 10000 nM.

As to `Cc1ccc(NC(=O)Nc2cccc(C(F)(F)F)c2)cc1S(=O)(=O)Nc1ccc(O)cc1` [Compound 304, N-(4-hydroxyphenyl)-2-methyl-5-(3-(3-(trifluoromethyl)phenyl)ureido)benzenesulfonamide], the IC50 is at most 1000 nM. Consider `CCCOc1ccc(NS(=O)(=O)c2cc(NC(=O)Nc3cccc(C(F)(F)F)c3)ccc2C)cc1` [Compound 305], for which the IC50 was 1000 to 10000 nM. For the molecule `Cc1ccc(NC(=O)Nc2cccc(C(F)(F)F)c2)cc1S(=O)(=O)Nc1ccc(OS(C)(=O)=O)cc1` [Compound 306], the IC50 was 1000 to 10000 nM. The result for `CCOC(=O)COc1ccc(NS(=O)(=O)c2cc(NC(=O)Nc3cccc(C(F)(F)F)c3)ccc2C)cc1` [Compound 308] reads 1000 to 10000 nM. Take `CC(=O)Nc1ccc(NS(=O)(=O)c2cc(NC(=O)Nc3cccc(C(F)(F)F)c3)ccc2C)cc1` [Compound 309]: the IC50 fell in the range of 1000 to 10000 nM. The result for `CCOC(=O)CNc1ccc(NS(=O)(=O)c2cc(NC(=O)Nc3cccc(C(F)(F)F)c3)ccc2C)cc1` [Compound 310] reads 1000 to 10000 nM; that for `Cc1ccc(NC(=O)Nc2cccc(C(F)(F)F)c2)cc1S(=O)(=O)Nc1ccc(C#N)cc1` [Compound 311], 1000 to 10000 nM.

Consider `Cc1ccc(NC(=O)Nc2cccc(C(F)(F)F)c2)cc1S(=O)(=O)Nc1ccc(C(=O)O)cc1` [Compound 312], for which the IC50 fell in the range of 1000 to 10000 nM. As for `Cc1ccc(NC(=O)Nc2cccc(C(F)(F)F)c2)cc1S(=O)(=O)Nc1ccc(S(C)(=O)=O)cc1` [Compound 313], the figure is 1000 to 10000 nM; as for `Cc1ccc(NC(=O)Nc2cccc(C(F)(F)F)c2)cc1S(=O)(=O)Nc1cccc(CCc2ccccc2)c1` [Compound 314], 1000 to 10000 nM. As for `Cc1ccc(NC(=O)Nc2cccc(C(F)(F)F)c2)cc1S(=O)(=O)Nc1ccc2c(c1)OCCO2` [Compound 315, N-(2,3-dihydrobenzo[b][1,4]dioxin-6-yl)-2-methyl-5-(3-(3(trifluoromethyl)phenyl)ureido)benzenesulfonamide], the figure is 1000 to 10000 nM.

Take `Cc1ccc(NC(=O)Nc2cccc(C(F)(F)F)c2)cc1S(=O)(=O)Nc1ccc2cc[nH]c2c1` [Compound 316, N-(1H-indol-6-yl)-2-methyl-5-(3-(3-(trifluoromethyl)phenyl)ureido)benzenesulfonamide]: the IC50 lay within 1000 to 10000 nM. The result for `CC(=O)n1ccc2cc(NS(=O)(=O)c3cc(NC(=O)Nc4cccc(C(F)(F)F)c4)ccc3C)ccc21` [Compound 318] reads 1000 to 10000 nM. Regarding `Cc1ccc(NC(=O)Nc2cccc(C(F)(F)F)c2)cc1S(=O)(=O)Nc1ccc2c(c1)ncn2C` [Compound 320, 2-methyl-N-(1-methyl-1H-benzo[d]imidazol-5-yl)-5-(3-(3-(trifluoromethyl)phenyl)ureido)benzene sulfonamide], the IC50 is 1000 to 10000 nM.

In the case of `Cc1ccc(NC(=O)Nc2cccc(C(F)(F)F)c2)cc1S(=O)(=O)Nc1cccc2ncccc12` [Compound 321], the IC50 was in the range of 1000 to 10000 nM. With `Cc1ccc(NC(=O)Nc2cccc(C(F)(F)F)c2)cc1S(=O)(=O)Nc1ccc(-c2nn[nH]n2)cc1` [Compound 322], the IC50 was 1000 to 10000 nM. As for `Cc1ccc(NC(=O)Nc2cccc(C(F)(F)F)c2)cc1S(=O)(=O)N1CCNCC1` [Compound 323], the IC50 lay in the range of 1000 to 10000 nM. Turning to `CCOC(=O)COc1ccc(NS(=O)(=O)c2cc(NC(=O)Nc3ccc(C(F)(F)F)cc3)ccc2C)cc1` [Compound 325], the IC50 was 1000 to 10000 nM. As for `Cc1ccc(NC(=O)Nc2ccc(C(F)(F)F)cc2)cc1S(=O)(=O)Nc1ccc(OCC(=O)O)cc1` [Compound 326], the figure is 1000 to 10000 nM.

Regarding `Cc1ccc(NC(=O)Nc2ccc(C(F)(F)F)cc2)cc1S(=O)(=O)Nc1ccc(OS(C)(=O)=O)cc1` [Compound 327], the IC50 was 1000 to 10000 nM. In the case of `CCOC(=O)C(C)Oc1ccc(NS(=O)(=O)c2cc(NC(=O)Nc3ccc(C(F)(F)F)cc3)ccc2C)cc1` (centres unmarked) [Compound 328], the IC50 fell in the range of 1000 to 10000 nM. Turning to `CC(=O)Nc1ccc(NS(=O)(=O)c2cc(NC(=O)Nc3ccc(C(F)(F)F)cc3)ccc2C)cc1` [Compound 329], the IC50 was 1000 to 10000 nM. The result for `CCOC(=O)CNc1ccc(NS(=O)(=O)c2cc(NC(=O)Nc3ccc(C(F)(F)F)cc3)ccc2C)cc1` [Compound 330] reads 1000 to 10000 nM. The result for `Cc1ccc(NC(=O)Nc2ccc(C(F)(F)F)cc2)cc1S(=O)(=O)Nc1ccc(S(C)(=O)=O)cc1` [Compound 331] reads 1000 to 10000 nM; that for `Cc1ccc(NC(=O)Nc2ccc(C(F)(F)F)cc2)cc1S(=O)(=O)Nc1cccc(CCc2ccccc2)c1` [Compound 332], 1000 to 10000 nM; that for `CCc1ccc(NC(=O)Nc2cccc(C(F)(F)F)c2)cc1S(=O)(=O)Nc1ccc(Cl)cc1` [Compound 333], 1000 to 10000 nM.

As to `Cc1ccc(NC(=O)Nc2cccc(S(=O)(=O)Nc3ccccc3)c2)cc1S(=O)(=O)Nc1ccc(Cl)cc1` [Compound 334], the IC50 was in the range of 1000 to 10000 nM.
